Results from ChEMBL document CHEMBL5291721, “A preclinical secondary pharmacology resource illuminates target-adverse drug reaction associations of marketed drugs” (Nat Commun, 2023).

What was measured:
[1] = target: T1, Equilibrative nucleoside transporter 1 (Homo sapiens, UniProt Q99808)
T1 sequence (Q99808 whole entry): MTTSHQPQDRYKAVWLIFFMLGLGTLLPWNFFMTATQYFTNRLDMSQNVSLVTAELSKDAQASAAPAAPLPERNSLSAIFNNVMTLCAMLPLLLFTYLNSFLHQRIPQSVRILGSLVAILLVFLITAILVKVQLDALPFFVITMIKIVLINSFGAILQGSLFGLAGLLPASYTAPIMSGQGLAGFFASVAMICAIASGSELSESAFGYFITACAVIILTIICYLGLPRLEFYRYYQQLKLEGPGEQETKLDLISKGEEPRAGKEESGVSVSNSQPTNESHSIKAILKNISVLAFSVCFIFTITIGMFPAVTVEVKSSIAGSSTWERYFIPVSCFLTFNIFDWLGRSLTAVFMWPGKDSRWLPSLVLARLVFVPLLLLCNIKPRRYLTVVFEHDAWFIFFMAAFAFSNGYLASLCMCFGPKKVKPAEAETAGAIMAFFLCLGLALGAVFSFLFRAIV

Adenosine receptor A1 = target: T2, Adenosine receptor A1 (Homo sapiens, UniProt P30542)
T2 sequence (P30542 whole entry): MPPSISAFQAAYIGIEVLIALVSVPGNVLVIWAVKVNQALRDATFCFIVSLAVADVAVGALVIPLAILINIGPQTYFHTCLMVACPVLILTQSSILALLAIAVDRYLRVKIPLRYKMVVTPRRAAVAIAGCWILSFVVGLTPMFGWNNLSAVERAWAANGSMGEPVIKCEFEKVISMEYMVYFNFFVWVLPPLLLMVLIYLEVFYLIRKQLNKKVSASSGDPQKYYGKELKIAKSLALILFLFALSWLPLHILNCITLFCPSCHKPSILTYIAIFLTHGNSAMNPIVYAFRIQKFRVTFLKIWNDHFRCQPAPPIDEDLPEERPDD

Motilin receptor = Motilin receptor (Homo sapiens, UniProt O43193)
Motilin receptor, sequence (O43193 whole entry): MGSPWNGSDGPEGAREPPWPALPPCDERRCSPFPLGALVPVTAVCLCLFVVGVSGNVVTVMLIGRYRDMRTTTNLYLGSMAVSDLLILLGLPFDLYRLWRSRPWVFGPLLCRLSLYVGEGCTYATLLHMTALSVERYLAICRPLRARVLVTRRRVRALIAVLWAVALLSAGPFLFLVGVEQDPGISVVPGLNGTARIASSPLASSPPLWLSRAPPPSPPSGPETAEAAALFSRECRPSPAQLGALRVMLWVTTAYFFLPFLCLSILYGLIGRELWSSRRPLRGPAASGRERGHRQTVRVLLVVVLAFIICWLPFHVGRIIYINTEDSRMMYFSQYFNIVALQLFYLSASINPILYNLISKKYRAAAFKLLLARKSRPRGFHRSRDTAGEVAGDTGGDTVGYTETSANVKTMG

B2 bradykinin receptor = target: T3, B2 bradykinin receptor (Homo sapiens, UniProt P30411)
T3 sequence (P30411 whole entry): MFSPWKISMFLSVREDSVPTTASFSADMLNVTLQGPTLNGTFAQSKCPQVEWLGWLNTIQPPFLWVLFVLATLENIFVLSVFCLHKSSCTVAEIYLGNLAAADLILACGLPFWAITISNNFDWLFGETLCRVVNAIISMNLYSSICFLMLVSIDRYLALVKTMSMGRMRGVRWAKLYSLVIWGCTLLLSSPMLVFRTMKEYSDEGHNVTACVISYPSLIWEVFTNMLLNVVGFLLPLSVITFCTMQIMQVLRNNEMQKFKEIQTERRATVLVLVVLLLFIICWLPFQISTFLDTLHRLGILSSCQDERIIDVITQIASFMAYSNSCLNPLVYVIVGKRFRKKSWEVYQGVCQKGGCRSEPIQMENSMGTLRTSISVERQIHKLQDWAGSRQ

[2] = target: T4, Amine oxidase [flavin-containing] A (Homo sapiens, UniProt P21397); assay type: functional
T4 sequence (P21397 whole entry): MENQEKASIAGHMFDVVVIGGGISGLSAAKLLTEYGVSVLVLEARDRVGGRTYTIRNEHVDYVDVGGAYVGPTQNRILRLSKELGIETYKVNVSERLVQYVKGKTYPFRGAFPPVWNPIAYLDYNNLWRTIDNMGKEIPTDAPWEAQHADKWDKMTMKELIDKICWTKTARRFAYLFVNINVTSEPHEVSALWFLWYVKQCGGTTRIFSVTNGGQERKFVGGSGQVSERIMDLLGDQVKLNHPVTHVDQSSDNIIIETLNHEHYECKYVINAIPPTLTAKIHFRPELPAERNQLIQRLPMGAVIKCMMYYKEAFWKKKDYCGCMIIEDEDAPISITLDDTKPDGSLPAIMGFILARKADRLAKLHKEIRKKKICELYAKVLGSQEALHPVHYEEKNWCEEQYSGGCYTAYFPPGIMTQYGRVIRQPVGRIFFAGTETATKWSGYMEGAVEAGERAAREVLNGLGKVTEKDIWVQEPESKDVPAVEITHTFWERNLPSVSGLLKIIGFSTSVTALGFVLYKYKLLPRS

[3] = target: cGMP-inhibited 3',5'-cyclic phosphodiesterase 3A (Homo sapiens, UniProt Q14432); assay type: functional
cGMP-inhibited 3',5'-cyclic phosphodiesterase 3A, sequence (Q14432 whole entry): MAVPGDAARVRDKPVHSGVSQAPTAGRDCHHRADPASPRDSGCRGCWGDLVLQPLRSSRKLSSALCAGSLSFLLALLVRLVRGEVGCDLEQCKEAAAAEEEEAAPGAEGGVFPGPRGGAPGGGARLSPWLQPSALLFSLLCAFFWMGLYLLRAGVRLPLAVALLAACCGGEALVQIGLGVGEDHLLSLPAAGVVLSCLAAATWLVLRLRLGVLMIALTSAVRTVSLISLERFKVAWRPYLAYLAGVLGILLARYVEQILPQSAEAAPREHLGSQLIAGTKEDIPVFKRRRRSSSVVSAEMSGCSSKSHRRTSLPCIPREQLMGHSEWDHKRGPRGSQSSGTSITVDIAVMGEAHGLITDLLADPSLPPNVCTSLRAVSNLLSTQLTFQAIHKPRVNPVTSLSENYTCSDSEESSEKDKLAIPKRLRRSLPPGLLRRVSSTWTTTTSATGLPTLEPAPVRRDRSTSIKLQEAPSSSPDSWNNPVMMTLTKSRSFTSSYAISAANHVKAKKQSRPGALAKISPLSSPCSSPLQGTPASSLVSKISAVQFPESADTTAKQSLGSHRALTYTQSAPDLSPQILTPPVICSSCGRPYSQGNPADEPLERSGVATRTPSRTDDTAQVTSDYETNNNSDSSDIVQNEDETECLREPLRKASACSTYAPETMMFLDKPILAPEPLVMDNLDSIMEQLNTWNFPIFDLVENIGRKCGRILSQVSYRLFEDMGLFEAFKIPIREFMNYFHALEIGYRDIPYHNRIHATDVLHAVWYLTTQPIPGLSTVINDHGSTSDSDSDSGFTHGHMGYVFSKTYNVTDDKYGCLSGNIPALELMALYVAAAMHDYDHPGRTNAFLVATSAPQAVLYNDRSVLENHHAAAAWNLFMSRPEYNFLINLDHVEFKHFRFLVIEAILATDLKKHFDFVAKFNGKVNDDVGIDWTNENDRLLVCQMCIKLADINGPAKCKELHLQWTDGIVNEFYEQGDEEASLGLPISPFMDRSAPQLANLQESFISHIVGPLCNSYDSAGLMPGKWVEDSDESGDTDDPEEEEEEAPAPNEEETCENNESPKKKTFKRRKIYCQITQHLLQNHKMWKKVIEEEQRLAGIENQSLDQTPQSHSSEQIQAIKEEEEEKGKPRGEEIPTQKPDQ

[4] = target: T5, Cholecystokinin receptor type A (Homo sapiens, UniProt P32238)
T5 sequence (P32238 whole entry): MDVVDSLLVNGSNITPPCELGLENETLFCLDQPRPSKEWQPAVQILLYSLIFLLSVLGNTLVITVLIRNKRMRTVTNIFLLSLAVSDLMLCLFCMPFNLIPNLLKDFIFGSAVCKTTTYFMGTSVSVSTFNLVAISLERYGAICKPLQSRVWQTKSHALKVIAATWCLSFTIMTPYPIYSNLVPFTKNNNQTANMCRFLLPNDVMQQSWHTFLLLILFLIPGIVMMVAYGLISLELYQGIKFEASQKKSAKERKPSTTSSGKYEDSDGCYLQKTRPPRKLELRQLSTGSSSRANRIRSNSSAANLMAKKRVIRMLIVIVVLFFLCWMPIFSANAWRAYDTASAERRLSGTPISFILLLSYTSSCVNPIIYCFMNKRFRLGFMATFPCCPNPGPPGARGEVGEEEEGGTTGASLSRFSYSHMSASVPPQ

[5] = target: T6, Alpha-2C adrenergic receptor (Homo sapiens, UniProt P18825); assay type: functional
T6 sequence (P18825 whole entry): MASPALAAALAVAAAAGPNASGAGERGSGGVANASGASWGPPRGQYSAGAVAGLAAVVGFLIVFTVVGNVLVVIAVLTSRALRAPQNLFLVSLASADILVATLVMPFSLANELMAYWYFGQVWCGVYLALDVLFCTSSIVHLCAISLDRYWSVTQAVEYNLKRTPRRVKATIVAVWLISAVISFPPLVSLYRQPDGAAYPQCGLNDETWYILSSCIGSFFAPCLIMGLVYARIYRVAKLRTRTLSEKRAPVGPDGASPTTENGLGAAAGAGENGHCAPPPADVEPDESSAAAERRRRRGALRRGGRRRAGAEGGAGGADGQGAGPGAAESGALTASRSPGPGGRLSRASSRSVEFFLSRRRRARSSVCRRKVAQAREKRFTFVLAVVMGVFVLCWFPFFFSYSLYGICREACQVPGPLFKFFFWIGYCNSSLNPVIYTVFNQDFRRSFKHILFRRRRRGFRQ

[6] = target: 3',5'-cyclic-AMP phosphodiesterase 4D (Homo sapiens, UniProt Q08499); assay type: functional
3',5'-cyclic-AMP phosphodiesterase 4D, sequence (Q08499 whole entry): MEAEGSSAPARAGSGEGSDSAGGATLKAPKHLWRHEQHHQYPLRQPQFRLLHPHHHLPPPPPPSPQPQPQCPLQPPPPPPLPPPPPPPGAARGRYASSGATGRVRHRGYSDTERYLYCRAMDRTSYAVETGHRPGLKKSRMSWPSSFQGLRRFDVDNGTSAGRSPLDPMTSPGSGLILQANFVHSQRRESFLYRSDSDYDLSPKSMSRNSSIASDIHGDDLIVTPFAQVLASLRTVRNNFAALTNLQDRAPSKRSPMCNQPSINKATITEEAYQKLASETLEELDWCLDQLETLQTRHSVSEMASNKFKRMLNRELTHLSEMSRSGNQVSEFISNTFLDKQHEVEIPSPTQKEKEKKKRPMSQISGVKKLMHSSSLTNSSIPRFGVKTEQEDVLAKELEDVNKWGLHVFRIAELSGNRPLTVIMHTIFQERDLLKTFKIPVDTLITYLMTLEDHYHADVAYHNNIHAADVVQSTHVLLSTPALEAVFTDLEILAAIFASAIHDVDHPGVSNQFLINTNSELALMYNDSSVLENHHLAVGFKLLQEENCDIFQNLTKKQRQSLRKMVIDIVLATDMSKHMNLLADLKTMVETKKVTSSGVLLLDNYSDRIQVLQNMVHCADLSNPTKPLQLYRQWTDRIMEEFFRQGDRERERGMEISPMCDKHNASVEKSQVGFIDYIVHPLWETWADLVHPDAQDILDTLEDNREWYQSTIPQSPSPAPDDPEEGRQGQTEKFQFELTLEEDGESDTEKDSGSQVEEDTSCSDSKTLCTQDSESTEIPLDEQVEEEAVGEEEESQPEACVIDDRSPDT

[7] = target: Sodium-dependent noradrenaline transporter (Homo sapiens, UniProt P23975)
Sodium-dependent noradrenaline transporter, sequence (P23975 whole entry): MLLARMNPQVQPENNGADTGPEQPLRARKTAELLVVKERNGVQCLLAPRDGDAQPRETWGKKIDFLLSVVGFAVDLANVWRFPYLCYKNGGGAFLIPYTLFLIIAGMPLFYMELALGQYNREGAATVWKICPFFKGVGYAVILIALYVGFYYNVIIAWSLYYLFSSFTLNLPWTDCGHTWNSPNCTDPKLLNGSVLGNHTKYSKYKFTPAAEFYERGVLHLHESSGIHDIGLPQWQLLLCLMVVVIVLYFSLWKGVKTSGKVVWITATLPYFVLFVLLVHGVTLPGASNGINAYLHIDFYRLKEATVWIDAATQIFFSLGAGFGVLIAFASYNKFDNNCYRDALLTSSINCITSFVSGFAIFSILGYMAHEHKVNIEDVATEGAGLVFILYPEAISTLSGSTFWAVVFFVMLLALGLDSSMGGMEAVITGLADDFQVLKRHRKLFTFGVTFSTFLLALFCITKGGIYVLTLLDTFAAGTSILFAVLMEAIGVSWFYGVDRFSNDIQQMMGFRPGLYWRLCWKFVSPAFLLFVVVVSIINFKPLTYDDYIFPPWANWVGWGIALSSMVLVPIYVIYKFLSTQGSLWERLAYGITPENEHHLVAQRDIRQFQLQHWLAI

D(3) dopamine receptor = D(3) dopamine receptor (Homo sapiens, UniProt P35462)
D(3) dopamine receptor, sequence (P35462 whole entry): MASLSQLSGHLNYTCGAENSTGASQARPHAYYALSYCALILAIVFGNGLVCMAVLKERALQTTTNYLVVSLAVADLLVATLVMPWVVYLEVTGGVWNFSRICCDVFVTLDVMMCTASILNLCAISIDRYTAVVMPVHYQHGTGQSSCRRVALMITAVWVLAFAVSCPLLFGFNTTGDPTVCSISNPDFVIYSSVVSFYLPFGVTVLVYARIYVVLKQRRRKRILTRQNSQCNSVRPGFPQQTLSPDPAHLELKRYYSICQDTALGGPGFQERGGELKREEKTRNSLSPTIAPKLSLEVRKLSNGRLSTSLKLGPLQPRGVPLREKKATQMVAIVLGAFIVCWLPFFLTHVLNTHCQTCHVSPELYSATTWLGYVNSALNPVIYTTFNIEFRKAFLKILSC
Further: assay procedure not described here.

| Structure (SMILES) | AC50 [1] [µM] | AC50 (Adenosine receptor A1) [µM] | AC50 (Motilin receptor) [µM] | AC50 (B2 bradykinin receptor) [µM] | AC50 [2] [µM] | AC50 [3] [µM] | AC50 [4] [µM] | AC50 [5] [µM] | AC50 [6] [µM] | AC50 [7] [µM] | AC50 (D(3) dopamine receptor) [µM] |
| --- | --- | --- | --- | --- | --- | --- | --- | --- | --- | --- | --- |
| CC(C)[C@H](N)C(=O)OCC(CO)OCn1cnc2c(=O)nc(N)[nH]c21 (stereo not given in full) [VALGANCICLOVIR] | > 30 | > 30 | > 30 | > 30 | > 30 | 7 | > 30 | > 30 | > 30 | > 30 | > 30 |
| CC(=O)N[C@@H](CS)C(=O)O [ACETYLCYSTEINE] | > 30 | > 30 | > 30 | > 30 | > 30 | > 30 | > 30 | > 30 | > 30 | > 30 | > 30 |
| CC(C(=O)O)c1ccc(-c2ccccc2)c(F)c1 (stereo not given) [FLURBIPROFEN] | > 10 | > 10 | > 10 | > 10 | > 10 | > 30 | > 10 | > 10 | > 30 | > 10 | 0.086 |
| CCC1(c2ccccc2)CCC(=O)NC1=O (stereo not given) [GLUTETHIMIDE] | > 10 | > 10 | > 10 | > 10 | > 10 | > 30 | > 10 | > 10 | > 30 | > 10 | > 30 |
| Nc1ncn([C@H]2C[C@H](O)[C@@H](CO)O2)c(=O)n1 [DECITABINE] | > 30 | > 30 | > 30 | > 30 | > 30 | > 30 | > 30 | > 30 | > 30 | > 30 | > 30 |
| CC(C(=O)O)c1ccc(CC2CCCC2=O)cc1 (stereo not given) [LOXOPROFEN] | > 30 | > 30 | > 30 | > 30 | > 30 | > 30 | > 30 | > 30 | > 30 | > 30 | > 30 |
| CCCC(CCC)C(N)=O [VALPROMIDE] | > 30 | > 30 | > 10 | > 30 | > 10 | > 30 | > 30 | > 10 | > 30 | > 30 | > 30 |
| C#C[C@]1(OC(C)=O)CC[C@H]2[C@@H]3CCC4=C/C(=N/O)CC[C@@H]4[C@H]3CC[C@@]21CC [NORGESTIMATE] | > 30 | > 30 | > 30 | > 30 | > 30 | > 30 | > 30 | > 30 | 13 | 28 | 29 |
| COCC1=C(C(=O)O)N2C(=O)[C@@H](NC(=O)/C(=N\OC)c3csc(N)n3)[C@H]2SC1 [CEFPODOXIME] | > 30 | > 30 | > 30 | > 30 | > 30 | > 30 | > 30 | > 30 | > 30 | > 30 | > 30 |
| Clc1ccc2c(N3CCN(CCCN4CCN(c5ccnc6cc(Cl)ccc56)CC4)CC3)ccnc2c1 [PIPERAQUINE] | > 30 | > 30 | > 30 | > 30 | > 30 | 4.7 | > 30 | > 30 | 22 | > 30 | 9 |
| CCOC(=O)c1cncn1[C@H](C)c1ccccc1 [ETOMIDATE] | > 10 | > 10 | > 10 | > 10 | > 10 | > 30 | > 10 | > 10 | > 30 | > 10 | > 30 |
| CC12CC3CC(C)(C1)CC(N)(C3)C2 [MEMANTINE] | > 30 | > 30 | > 10 | > 30 | > 10 | > 30 | > 30 | > 10 | > 30 | > 30 | > 30 |
| Clc1ccc(C(Cn2ccnc2)OCc2ccsc2Cl)c(Cl)c1 (stereo not given) [TIOCONAZOLE] | > 30 | > 30 | > 30 | > 3 | > 30 | 17 | > 30 | 6.5 | 8.7 | 20.7 | 24 |
| CCOC(=O)C1=C[C@]2(CC)CCCN3CCc4c(n1c1ccccc41)[C@@H]32 [VINPOCETINE] | > 30 | 30 | > 30 | > 30 | > 30 | > 30 | > 30 | 1.1 | 8.8 | > 30 | 23 |
| CCC(=O)O[C@H]1CC[C@H]2[C@@H]3CCC4=CC(=O)CC[C@]4(C)[C@H]3CC[C@]12C [TESTOSTERONE PROPIONATE] | > 10 | > 10 | > 10 | > 10 | > 10 | > 10 | > 10 | > 10 | > 30 | > 10 | > 30 |
